The test system of one assay is iFA model. Kind of assay: In situ cell elasticity by atomic force microscopy in the iFA model. The format is cell-based, human. The conditions noted are these: AA5 vs DMSO-treated iFA model. The protocol:
Tapping mode AFM using the Bruker BioScope Catalyst Atomic Force coupled with Zeiss LSMS Confocal Fluorescence Microscope was used on the cells at 37° C. in cell culture media. AFM deflection images of cells were used in the imaging experiment. In the force measurement, sharp silicon nitride AFM probes (tip radius, 20 nm) were employed (Bruker Corp., USA). The spring constants of AFM tips were calibrated to be 0.10-0.11 N m^−1 and deflection sensitivities were 45-50 nm V^−1, using Thermo K Calibration (Agilent Technologies, USA). The approaching/retracting speed of the AFM tip during the force curve measurement was 6 μm s^−1. Force-distance curves were recorded to obtain cell elasticity (Young's modulus, E) of individual cells. For each time point, at least 20 single cells, 20 cells at the base of the iFA and 20 cells at the tip of the scar were measured with over 15 force-distance curves per cell to obtain significant results. The Young's modulus was calculated via the Scanning Probe Image Processor (SPIP) software (Image Metrology, Denmark) by converting the force-distance curves to force-separation curves and fitting the Sneddon variation of the Hertz model, which describes conical tips indenting elastic samples.

The test system of assay [1] is Idiopathic Pulmonary Fibrosis patient lung slices. Kind of assay: Ex vivo fibrotic lung slice culture (LSC) system. Type of assay: cell-based, human. The protocol: The Milliplex human cytokine/chemokine Panel IV, human TIMP Panel 2, and human TGFβ 1,2,3 magnetic bead kits (EMD Millipore) were used per manufacturer's instructions. Prior to plating, all samples tested for human TGFβ only were activated and neutralized with 1.0 N HCl and 1.0 N NaOH, respectively. Briefly, 25 μl of undiluted or treated cell culture supernatant samples were mixed with 25 μl of magnetic beads and allowed to incubate overnight at 4° C. while shaking. After washing the plates with wash buffer in a Biotek ELx405 washer, 25 μl of biotinylated detection antibody was added and incubated for 1 hour at room temperature while shaking. 25 μl of streptavidin-phycoerythrin conjugate was then added to the reaction mixture and incubated for another 30 minutes at room temperature while shaking. Following additional washes, beads were resuspended in sheath fluid, and fluorescence was quantified using a Luminex 200 instrument. Similarly, a custom magnetic Luminex assay kit of select analytes (R&D Systems) was used per manufacturer's instructions. Cell culture supernatants were prepared with a 2-fold dilution. 50 μl of diluted sample were added to 50 μl of provided micro-particle cocktail and incubated for 2 hours at room temperature while shaking. After washing with wash buffer, 50 μl of biotin antibody cocktail was added and incubated for 1 hour at room temperature while shaking. Following additional washes, 50 μl of diluted Streptavidin-PE was then added for incubation for 30 minutes at room temperature while shaking. The plate was then washed again and the micro-particles resuspended in 100 μl wash buffer. After an additional 2-minute incubation while shaking, the data was acquired using a Luminex 200 instrument.
Conditioned media at different time points of progression of the phenotype, and on prevention and resolution drug treatments were collected and quantification of protein was performed using the IBL man HMGB1 ELISA kit or LSBio NPTX1 ELISA kits per manufacturer's instructions. 10 μl of each supernatant sample was added to anti-HMGB1 polyclonal antibody-coated plate and incubated for 20 hours at 37° C. All liquid was then removed and the plate manually washed 5 times with wash buffer. 100 μl of enzyme conjugate was then added and incubated for 2 hours at room temperature. After washing again, color solution was added at 100 μl per well and incubated for 30 minutes at room temperature. Following an additional five washes, the plate was incubated with 90 μl of TMB substrate for another 15 minutes at 37° C. in the dark. The reaction was then stopped by addition 100 μl of stop solution. Absorbance was measured at 450 nm using a SpectraMAX Plate Reader. Data was analyzed using SoftMax Pro software.
In-vitro cultures of PF and cells in the iFA model were washed once with PBS and total RNA from the samples were extracted using the RNeasy Mini Kit (Qiagen) according to the manufacturer's instructions. For the lung slice cultures (LSC), tissues were snap-frozen after treatment and stored at −80° C. until RNA isolation. Lung slices were homogenized using a handheld homogenizer and passing the homogenate through a Qiashredder (Qiagen). Total RNA from the LSC and cells from the disease model were extracted using the RNeasy Mini Kit (Qiagen) according to the manufacturer's instructions. The RNA concentrations were measured on a NanoDrop ND-1000 spectrophotometer. Single-stranded cDNA was synthesized from 200 ng of total RNA using Superscript IV and random hexamer primers (Invitrogen) in a volume of 20 μl. cDNA was then used for qRT-PCR analysis. PCR reactions were performed using Taqman Gene Expression Assay mix (Applied Biosystems) according to the manufacturer's instructions.
All human samples were obtained in accordance with institute IRB. Tissue for lung slice experiments was obtained from patients with Idiopathic Pulmonary Fibrosis (IPF) at the time of lung transplant. […]

On to `Cc1c(C(=O)Nc2nc3ccccc3s2)sc2nc3cc4c(cc3cc12)OCO4` [AA5], for which the Cell stiffness entry in the assay on iFA model is recorded as “significantly decreased”. In assay [1] (10 μM AA5, 48 hours), the “Secretion of matrix degrading proteases MMP-9 and uPA” value is on record as “increased secretion”. Moreover, the “ACTA-2, COL1A2 and TGF-β3 mRNA expression” value in assay [1] (10 μM AA5, 48 hours, vs DMSO, not TGF-β1/2) was “significantly reduced”. Further, in assay [1] (10 μM AA5, 48 hours, not TGF-β1/2), the “Secreted TGF-β3, TIMP-4 and POSTN protein” value is “decreased levels”. Moreover, in assay [1] (AA5-treated LSCs), the “NPTX1 mRNA and protein level” value is recorded as “upregulated”; the “Scavenger receptor CD163L1” value is “upregulated and secreted”. For the same compound, the HMGB1 immunostaining entry in assay [1] (AA5-treated LSCs vs DMSO) was “exclusively nuclear staining”. Besides, the “Secreted HMGB1 (luminex)” value in assay [1] (AA5-treated LSCs, 48 hours) is listed as “markedly decreased”. In addition, the “Reduction of fibrosis-initiating SSEA4+ cells” value in assay [1] (AA5-treated LSCs, p value <0.001) is on record as over 50%.
